Assay results published in patent US10570121B2, “Substituted dihydroisoquinolinone compounds” (priority 2014, dated 2020).
Where two headings read alike, the source gives them in different places.

Experiments:
[1] = target: WT EZH2 (Homo sapiens (Human), UniProt Q15910); test: WT EZH2 nucleosome assay (10X SAM, high SAM conditions); format: biochemical; settings: 15 uM SAM, Ki app from competitive inhibition fit
Procedure: (§1) The genes for EZH2, EED, SUZ12, and RBBP4 proteins were cloned into pBacPAK9 vectors (Clontech). RBBP4 was FLAG tagged on the N-terminal end. The baculovirus expressions of these proteins were used to co-infect SF9 insect cells. Insect cell pellets were lysed in a buffer containing 25 mM Tris pH8.0, 300 mM NaCl, 0.5 mM TCEP, complete EDTA-free protease inhibitor (Roche), 0.1% NP-40. The supernatant from the lysate was incubated with FLAG® M2 antibody resin (Sigma). The resin was washed on the chromatography column and eluted with 0.2 mg/ml FLAG peptide. The elute was incubated with omnicleave nucleases (Epicentre Technologies) at 4° C. overnight, then concentrated and loaded onto a Superdex 200 (GE Healthcare) column. The Superdex 200 column was eluted with 25 mM Tris pH8.0, 150 mM NaCl, 0.5 mM TCEP. Fractions containing the PRC2 complex were pooled.
(§2) A. Compound preparation • 1.
(§3) B. Reagent preparation • 1. […] Dilute TCA to 20% in DI water
(§4) C. Enzyme reaction • 1. […] Some compounds were tested under high SAM conditions.
(§5) D. Data analysis • 1. IC50 values were determined by fitting the data to a 4-parameter IC50 equation using proprietary curve fitting software. • 2. For compounds tested under high SAM conditions, Ki^app values were obtained by fitting the dose response curve to a model for competitive inhibition using proprietary curve fitting software. Preparation of HeLa Oligonucleosomes: Reagents • Cell Pellet: 15 L HeLa S3 (Accelgen)+6 L HeLa S3 (in house) • Mnase (Worthington Biochemicals) Equipment • SW-28 Rotor • Dounce Homogenizer/B Pestle Buffers • Lysis: 20 mM Hepes pH 7.5, 0.25M Sucrose, 3 mM MgCl2, 0.5% Nonidet P-40, 0.5 mM TCEP, 1 Roche Protease Tablet • B: 20 mM Hepes pH7.5, 3 mM MgCl2, 0.5 mM EDTA, 0.5 mM TCEP, 1 Roche Protease Tablet • MSB: 20 mM Hepes pH7.5, 0.4 M NaCl, 1 mM EDTA, 5% v/v Glycerol, 0.5 mM TCEP, 0.2 mM PMSF • LSB: 20 mM Hepes pH7.5, 0.1M NaCl, 1 mM EDTA, 0.5 mM TCEP, 0.2 mM PMSF • NG: 20 mM Hepes pH7.5, 1 mM EDTA, 0.4 m NaCl, 0.2 mM PMSF, 0.5 mM TCEP • Storage: 20 mM Hepes pH7.5, 1 mM EDTA, 10% Glycerol, 0.2 mM PMSF, 0.5 mM TCEP Protocol

[2] = target: EZH2 Mutant Y641N (Homo sapiens (Human), UniProt Q15910, Y641N); test: EZH2 Mutant Y641N nucleosome assay; format: biochemical; settings: PRC2 4-protein complex 6 nM, 1.5 μM SAM, HeLa oligonucleosomes
Procedure: as §1, §2, §3, §4, §5

[3] = read-out: WT EZH2 Nucleosome assay (10X SAM) Ki
[4] = read-out: EZH2 Mutant Y641N Nucleosome assay IC50
[5] = EZH2 Mutant Y641N Nucleosome assay IC50 (μM)
[6] = WT EZH2 Nucleosome assay (10X SAM) Ki (μM)

Chain of WT EZH2 (Q15910 whole entry, looked up): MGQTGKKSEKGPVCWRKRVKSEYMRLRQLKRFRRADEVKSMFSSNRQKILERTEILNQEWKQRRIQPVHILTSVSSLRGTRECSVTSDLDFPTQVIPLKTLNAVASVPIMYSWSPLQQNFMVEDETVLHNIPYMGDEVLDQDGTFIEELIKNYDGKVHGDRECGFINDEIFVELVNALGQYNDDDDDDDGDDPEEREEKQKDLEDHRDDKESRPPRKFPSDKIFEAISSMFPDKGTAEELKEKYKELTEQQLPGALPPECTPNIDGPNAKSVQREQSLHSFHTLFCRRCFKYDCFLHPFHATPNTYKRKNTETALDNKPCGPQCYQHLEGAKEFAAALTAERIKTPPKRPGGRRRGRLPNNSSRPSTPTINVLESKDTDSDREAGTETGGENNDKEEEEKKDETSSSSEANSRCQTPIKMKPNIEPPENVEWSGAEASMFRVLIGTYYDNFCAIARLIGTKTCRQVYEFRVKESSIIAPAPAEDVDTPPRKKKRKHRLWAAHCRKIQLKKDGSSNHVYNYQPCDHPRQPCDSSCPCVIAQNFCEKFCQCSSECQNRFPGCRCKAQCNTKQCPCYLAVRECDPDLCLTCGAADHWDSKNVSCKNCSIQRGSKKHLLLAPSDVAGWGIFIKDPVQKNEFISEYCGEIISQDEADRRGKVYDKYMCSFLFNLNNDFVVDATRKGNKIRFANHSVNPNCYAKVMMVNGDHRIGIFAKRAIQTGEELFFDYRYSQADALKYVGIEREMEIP
Chain of WT EZH2 (O75530 whole entry partner, looked up): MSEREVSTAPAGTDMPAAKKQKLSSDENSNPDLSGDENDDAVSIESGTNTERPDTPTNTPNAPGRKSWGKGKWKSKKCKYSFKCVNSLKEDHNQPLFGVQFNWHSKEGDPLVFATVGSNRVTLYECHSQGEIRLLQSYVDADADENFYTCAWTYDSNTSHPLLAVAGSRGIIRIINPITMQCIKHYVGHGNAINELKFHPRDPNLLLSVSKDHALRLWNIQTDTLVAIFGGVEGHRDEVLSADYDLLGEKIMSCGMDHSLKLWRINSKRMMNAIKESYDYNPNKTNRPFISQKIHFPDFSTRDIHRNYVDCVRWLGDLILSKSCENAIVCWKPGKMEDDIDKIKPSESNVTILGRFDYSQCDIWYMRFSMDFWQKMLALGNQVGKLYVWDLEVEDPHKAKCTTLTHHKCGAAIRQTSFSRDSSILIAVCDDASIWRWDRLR
Chain of WT EZH2 (Q15022 whole entry partner, looked up): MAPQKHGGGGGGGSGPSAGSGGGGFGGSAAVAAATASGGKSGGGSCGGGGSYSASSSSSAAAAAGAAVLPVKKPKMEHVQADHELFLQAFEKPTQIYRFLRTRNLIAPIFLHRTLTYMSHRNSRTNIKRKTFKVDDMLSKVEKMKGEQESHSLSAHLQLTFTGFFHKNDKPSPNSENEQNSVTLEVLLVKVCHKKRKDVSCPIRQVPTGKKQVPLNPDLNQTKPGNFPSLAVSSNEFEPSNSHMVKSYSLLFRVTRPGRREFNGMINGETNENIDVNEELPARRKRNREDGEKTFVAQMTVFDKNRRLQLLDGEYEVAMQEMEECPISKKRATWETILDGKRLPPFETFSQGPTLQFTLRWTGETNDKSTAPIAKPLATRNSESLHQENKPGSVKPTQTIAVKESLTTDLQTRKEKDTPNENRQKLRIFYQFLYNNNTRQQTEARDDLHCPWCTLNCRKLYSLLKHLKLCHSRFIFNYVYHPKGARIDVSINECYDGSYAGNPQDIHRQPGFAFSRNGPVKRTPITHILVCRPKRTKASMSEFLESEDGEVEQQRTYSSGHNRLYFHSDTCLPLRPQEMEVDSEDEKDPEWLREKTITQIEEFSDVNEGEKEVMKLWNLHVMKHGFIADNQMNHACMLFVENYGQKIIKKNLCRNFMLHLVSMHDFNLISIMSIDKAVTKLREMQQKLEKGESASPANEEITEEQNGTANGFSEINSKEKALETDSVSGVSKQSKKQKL
Chain of WT EZH2 (Q09028 whole entry partner, looked up): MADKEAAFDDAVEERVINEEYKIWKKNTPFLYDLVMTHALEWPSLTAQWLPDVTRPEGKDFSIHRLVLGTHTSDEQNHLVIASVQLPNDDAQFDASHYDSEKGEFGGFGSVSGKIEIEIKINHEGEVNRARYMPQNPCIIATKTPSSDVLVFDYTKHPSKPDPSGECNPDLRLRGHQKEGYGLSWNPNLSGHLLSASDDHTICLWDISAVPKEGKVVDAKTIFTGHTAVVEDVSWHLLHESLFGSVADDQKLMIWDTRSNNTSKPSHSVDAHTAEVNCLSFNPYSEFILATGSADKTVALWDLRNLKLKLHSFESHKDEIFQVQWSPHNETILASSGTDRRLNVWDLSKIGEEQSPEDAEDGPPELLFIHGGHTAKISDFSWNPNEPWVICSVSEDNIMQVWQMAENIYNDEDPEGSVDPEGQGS
Chain of EZH2 Mutant Y641N (Q15910 whole entry Y641N, looked up): as the sequence (Q15910 whole entry, looked up) above, with Y641N counted along it
Chain of EZH2 Mutant Y641N (O75530 whole entry partner, looked up): as the sequence (O75530 whole entry partner, looked up) above
Chain of EZH2 Mutant Y641N (Q15022 whole entry partner, looked up): as the sequence (Q15022 whole entry partner, looked up) above
Chain of EZH2 Mutant Y641N (Q09028 whole entry partner, looked up): as the sequence (Q09028 whole entry partner, looked up) above

Structure (SMILES)	Ki [1, 3] [µM]	IC50 [2, 4] [µM]	IC50 [2, 5] [µM]	Ki [1, 6] [µM]
COC(C(C)=O)c1cc(Cl)c2c(c1Cl)C(=O)N(Cc1c(C)cc(C)[nH]c1=O)CC2 (racemic) [Example 49]	0.215	0.996		
Cc1cc(C)c(CN2CCc3c(Cl)cc(C(CO)N4CCCC4)c(Cl)c3C2=O)c(=O)[nH]1 (racemic) [Example 57]	0.406	1.35		
Cc1cc(C)c(CN2CCc3c(Cl)cc(C(CO)N4CCC(F)(F)C4)c(Cl)c3C2=O)c(=O)[nH]1 (racemic) [Example 59]	0.025	0.155		
Cc1cc(C)c(CN2CCc3c(Cl)cc(C(CO)N4CCOCC4)c(Cl)c3C2=O)c(=O)[nH]1 (racemic) [Example 60]	0.031	0.18		
Cc1cc(C)c(CN2CCc3ccc([C@@H](CO)[C@@H]4CCOC4)c(Cl)c3C2=O)c(=O)[nH]1 (racemic) [Example 64]	0.007	0.043		
Cc1cc(C)c(CN2CCc3ccc([C@H](CO)[C@@H]4CCOC4)c(Cl)c3C2=O)c(=O)[nH]1 (racemic) [Example 65]	0.006	0.047		
[2H]C([2H])([2H])OC(c1cc(Cl)c2c(c1Cl)C(=O)N(Cc1c(C)cc(C)[nH]c1=O)CC2)C1CCN(C(=O)CO)CC1 (racemic) [Example 70]			0.006	
Cc1cc(C)c(CN2CCc3c(Cl)cc(C(C)N4CCOCC4)c(Cl)c3C2=O)c(=O)[nH]1 (racemic) [Example 89, (±)-5,8-dichloro-2-[(4,6-dimethyl-2-oxo-1,2-dihydropyridin-3-yl)methyl]-7-[1-(morpholin-4-yl)ethyl]-3,4-dihydroisoquinolin-1(2H)-one]	0.008	0.088		
COC(c1cc(C)c2c(c1Cl)C(=O)N(Cc1c(C)cc(C)[nH]c1=O)CC2)C1CNC1 (racemic) [Example 178]	0.003	0.02		
Cc1cc(C)c(CN2CCc3c(Cl)cc(C(C)N4CCN(C)CC4)c(Cl)c3C2=O)c(=O)[nH]1 (racemic) [Example 202]	0.016	0.207		
Cc1cc(C)c(CN2CCc3c(Cl)cc(C(C)N4CCNCC4)c(Cl)c3C2=O)c(=O)[nH]1 (racemic) [Example 205]	0.0007	0.008		
Cc1cc(C)c(CN2CCc3c(Cl)cc(C(CO)N4CC[C@@H](F)C4)c(Cl)c3C2=O)c(=O)[nH]1 (single isomer, unassigned) [Example 6]	0.019	0.136		
Cc1cc(C)c(CN2CCc3c(Cl)cc(C(CO)N4CC[C@@H](F)C4)c(Cl)c3C2=O)c(=O)[nH]1 (single isomer, unassigned) [Example 7]	0.171	1.62		
CCC(OC)c1cc(Cl)c2c(c1Cl)C(=O)N(Cc1c(C)cc(C)[nH]c1=O)CC2 (single isomer, unassigned) [Example 15, 5,8-dichloro-2-[(4,6-dimethyl-2-oxo-1,2-dihydropyridin-3-yl)methyl]-7-(1-methoxypropyl)-3,4-dihydroisoquinolin-1(2H)-one]			0.019	0.003
CCC(OC)c1cc(Cl)c2c(c1Cl)C(=O)N(Cc1c(C)cc(C)[nH]c1=O)CC2 (single isomer, unassigned) [Example 16, 5,8-dichloro-2-[(4,6-dimethyl-2-oxo-1,2-dihydropyridin-3-yl)methyl]-7-(1-methoxypropyl)-3,4-dihydroisoquinolin-1(2H)-one]			0.04	0.004
COC(c1cc(Cl)c2c(c1Cl)C(=O)N(Cc1c(C)cc(C)[nH]c1=O)CC2)C1CCOCC1 (single isomer, unassigned) [Example 50]	0.077	0.129		
COC(c1cc(Cl)c2c(c1Cl)C(=O)N(Cc1c(C)cc(C)[nH]c1=O)CC2)C1CCOCC1 (single isomer, unassigned) [Example 51]		0.002		

Structure (SMILES)	Ki [1, 3] [µM]	IC50 [2, 4] [µM]	IC50 [2, 5] [µM]	Ki [1, 6] [µM]
COC(c1cc(Cl)c2c(c1Cl)C(=O)N(Cc1c(C)cc(C)[nH]c1=O)CC2)C1(O)CCOCC1 (single isomer, unassigned) [Example 52]	0.298	1.04		
COC(c1cc(Cl)c2c(c1Cl)C(=O)N(Cc1c(C)cc(C)[nH]c1=O)CC2)C1(O)CCOCC1 (single isomer, unassigned) [Example 53]	0.001	0.017		
Cc1cc(C)c(CN2CCc3c(Cl)cc([C@@H](CC#N)[C@@H]4CCOC4)c(Cl)c3C2=O)c(=O)[nH]1 (single isomer, unassigned) [Example 54]	0.004	0.012		
Cc1cc(OC(F)F)c(CN2CCc3c(Cl)cc(C(CO)C4CCOCC4)c(Cl)c3C2=O)c(=O)[nH]1 (single isomer, unassigned) [Example 56]		0.004		
COC(c1cc(Cl)c2c(c1Cl)C(=O)N(Cc1c(C)cc(C)[nH]c1=O)CC2)C1CCN(C(=O)CC#N)CC1 (single isomer, unassigned) [Example 61]	0.031	0.127		
Cc1cc(C)c(CN2CCc3c(Cl)cc(C(CO)N4CC[C@H](F)C4)c(Cl)c3C2=O)c(=O)[nH]1 (single isomer, unassigned) [Example 62]	0.035	0.262		
Cc1cc(C)c(CN2CCc3c(Cl)cc(C(CO)N4CC[C@H](F)C4)c(Cl)c3C2=O)c(=O)[nH]1 (single isomer, unassigned) [Example 63]	0.528	4.1		
Cc1cc(C)c(CN2CCc3c(Cl)cc(C(CO)N4CCC(F)(F)C4)c(Cl)c3C2=O)c(=O)[nH]1 (single isomer, unassigned) [Example 66]	0.009	0.081		
Cc1cc(C)c(CN2CCc3c(Cl)cc(C(CO)N4CCC(F)(F)C4)c(Cl)c3C2=O)c(=O)[nH]1 (single isomer, unassigned) [Example 67]	1.6	19.5		
Cc1cc(C)c(CN2CCc3c(Cl)cc(C(CO)N4CCOCC4)c(Cl)c3C2=O)c(=O)[nH]1 (single isomer, unassigned) [Example 68]	0.007	0.074		
Cc1cc(C)c(CN2CCc3c(Cl)cc(C(CO)N4CCOCC4)c(Cl)c3C2=O)c(=O)[nH]1 (single isomer, unassigned) [Example 69]	0.417	4.31		
COC(c1cc(Cl)c2c(c1Cl)C(=O)N(Cc1c(C)cc(C)[nH]c1=O)CC2)C1CCN(C(=O)CC#N)CC1 (single isomer, unassigned) [Example 71]		0.003		
COC(c1cc(Cl)c2c(c1Cl)C(=O)N(Cc1c(C)cc(C)[nH]c1=O)CC2)C1CCN(C=O)CC1 (single isomer, unassigned) [Example 72]	0.041	0.128		
COC(c1cc(Cl)c2c(c1Cl)C(=O)N(Cc1c(C)cc(C)[nH]c1=O)CC2)C1CCN(C=O)CC1 (single isomer, unassigned) [Example 73]		0.002		
COc1cc(C)[nH]c(=O)c1CN1CCc2c(C)cc([C@H](OC)[C@H]3CCOC3)c(Cl)c2C1=O (single isomer, unassigned) [Example 84, 8-chloro-2-[(4-methoxy-6-methyl-2-oxo-1,2-dihydropyridin-3-yl)methyl]-7-{(R*)-methoxy[(3S*)-tetrahydrofuran-3-yl]methyl}-5-methyl-3,4-dihydroisoquinolin-1(2H)-one]	0.0002	0.002		
Cc1cc(C)c(CN2CCc3c(Cl)cc([C@@H](CO)[C@@H]4CCOC4)c(Cl)c3C2=O)c(=O)[nH]1 [Example 4, 5,8-dichloro-2-[(4,6-dimethyl-2-oxo-1,2-dihydropyridin-3-yl)methyl]-7-{(1S)-2-hydroxy-1-[(3S)-tetrahydrofuran-3-yl]ethyl}-3,4-dihydroisoquinolin-1(2H)-one]		1.95		
